Where two headings read alike, the source gives them in different places. Marks after values point to notes of the source that are not given here.
Key:
[1] = system: 13 Enterobacteriaceae isolates; assay type: cell-based; conditions: with clavulanate 2:1
[2] = cited from earlier work
[3] = cited from earlier work; for bioavailability / fCmax: po
[4] = system: Enterobacter aerogenes isolates; assay: MIC of cephalosporins alone or with clavulanate/tazobactam; assay type: cell-based; conditions: Klebsiella aerogenes, clavulanate 2:1, tazobactam 4 μg/mL
[5] = system: Escherichia coli isolates; assay: as above; assay type: cell-based; conditions: clavulanate 2:1, tazobactam 4 μg/mL
[6] = system: ESBL-producing Enterobacteriaceae isolates (panel of nineteen); assay: MIC of cephalosporins alone or with clavulanate/tazobactam, whole panel; assay type: cell-based; conditions: cephalosporin alone; 19 isolates
[7] = system: Klebsiella pneumoniae isolates; assay: MIC of cephalosporins alone or with clavulanate/tazobactam; assay type: cell-based; conditions: clavulanate 2:1, tazobactam 4 μg/mL
[8] = system: 385 Escherichia coli and 126 Klebsiella pneumoniae isolates; assay: MIC, MIC50 and MIC90 by reference broth microdilution against 511 UTI/bloodstream isolates (USA and Europe 2014-2015); assay type: cell-based; conditions: 511 isolates
[9] = system: Klebsiella oxytoca isolates; assay: MIC of cephalosporins alone or with clavulanate/tazobactam; assay type: cell-based; conditions: clavulanate 2:1, tazobactam 4 μg/mL
[10] = system: Citrobacter freundii isolates; assay: as above; assay type: cell-based; conditions: clavulanate 2:1, tazobactam 4 μg/mL
[11] = system: Enterobacter cloacae isolates; assay: as above; assay type: cell-based; conditions: clavulanate 2:1, tazobactam 4 μg/mL
CTX-M-15 = CTX-M-15 (Escherichia coli, UniProt Q9EXV5); assay: Competition assay with nitrocefin (IC50); assay type: biochemical
Chain of CTX-M-15 (Q9EXV5 entry or part of it): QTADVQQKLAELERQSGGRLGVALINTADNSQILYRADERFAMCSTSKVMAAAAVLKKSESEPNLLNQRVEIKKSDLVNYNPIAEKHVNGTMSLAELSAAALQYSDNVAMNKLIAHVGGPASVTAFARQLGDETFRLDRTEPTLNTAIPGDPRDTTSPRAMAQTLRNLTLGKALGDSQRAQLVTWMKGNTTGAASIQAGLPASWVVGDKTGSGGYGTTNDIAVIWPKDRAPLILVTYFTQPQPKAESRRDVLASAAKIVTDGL

CTX-M-15 Strain = assay: MIC of cephalosporins without and with CLV (Table 16); assay type: cell-based; conditions: for MIC: read-out: MIC CTX-M-15 Strain − CLV; for MIC CTX-M-15 Strain + CLV: with CLV
AECO001 = assay: MIC of cephalosporins (Table 16); assay type: cell-based
[12] = system: COCC1=C(C(=O)O)N2C(=O)[C@@H](NC(=O)/C(=N\OC)c3csc(N)n3)[C@H]2SC1; assay: purified protein, by the assay type; conditions: other: CTX-M-15-mediated hydrolysis; pH 7.0
[13] = system: C=CC1=C(C(=O)O)N2C(=O)[C@@H](NC(=O)/C(=N\OCC(=O)O)c3csc(N)n3)[C@H]2SC1; assay: purified protein, by the assay type; conditions: other: CTX-M-15-mediated hydrolysis; pH 7.0

## CO/N=C(\C(=O)N[C@@H]1C(=O)N2C(C(=O)O)=C(/C=C\c3scnc3C)CS[C@H]12)c1csc(N)n1 [Cefditoren, cefditoren]
[1]
  MICs range against ESBL+ isolates (Table 3): 0.12 to 2 µg/mL
[2]; plasma
  Protein binding (% bound): 88 (plasma) % bound
[3]; in vivo, 200 mg
  Mean Cmax: 1.8 µg/mL
  Mean fCmax: 0.22 µg/mL
[3]; in vivo
  bioavailability: 14%
  Mean unbound plasma concentration following one elimination half-life: 0.11 µg/mL
  peak free drug concentrations: ≤ 0.3 µg/mL

## CO/N=C(\C(=O)N[C@@H]1C(=O)N2C(C(=O)[O-])=C(C[N+]3(C)CCCC3)CS[C@H]12)c1csc(N)n1 [Cefepime, cefepime]
[4]; AEAE1027 (CTX-M-14)
  MIC: 8 µg/mL
[4]; AEAE1029 (CTX-M-15)
  MIC: > 32 µg/mL
[5]; AECO001 (no ESBL)
  MIC: ≤ 0.031 µg/mL
[5]; AECO1078 (CTX-M-15)
  MIC: > 32 µg/mL
[5]; AECO1147 (CTX-M-15)
  MIC: 4 µg/mL
[5]; AECO1157 (CTX-M-15, TEM-OSBL)
  MIC: 32 µg/mL
[5]; AECO1159 (CTX-M-15)
  MIC: > 32 µg/mL
[5]; AECO1169 (CTX-M-1, TEM-OSBL)
  MIC: > 32 µg/mL
[5]; AECO1172 (CTX-M-14)
  MIC: > 32 µg/mL
[6]
  ESBL-producing isolates with MIC<8 μg/mL: 4 of 19
[7]; AKPN1159 (SHV-12)
  MIC: 2 µg/mL
[7]; AKPN1161 (SHV-7)
  MIC: 1 µg/mL
[7]; AKPN1162 (CTX-M-15, SHV-12)
  MIC: > 32 µg/mL
[7]; AKPN1166 (CTX-M-14, SHV-12)
  MIC: 4 µg/mL
[7]; AKPN1167 (SHV-2)
  MIC: 8 µg/mL
[8]
  MIC50: > 16 µg/mL
[8]; EUCAST 2016 criteria
  EUCAST % I: 10.0%
[8]; read-out: MIC90
  MIC90: > 16 µg/mL
[9]; AKOX1005 (SHV-2, TEM-1, DHA-1)
  MIC: 0.25 µg/mL
[9]; AKOX1009 (CTX-M-15)
  MIC: 32 µg/mL
[10]; ACFR1034 (CTX-M-15, TEM-OSBL)
  MIC: > 32 µg/mL
[10]; ACFR1035 (CTX-M-3, TEM-OSBL)
  MIC: > 32 µg/mL
[11]; AECL1065 (CTX-M-15)
  MIC: > 32 µg/mL
[11]; AECL1067 (CTX-M-3)
  MIC: > 32 µg/mL

## C=CC1=C(C(=O)O)N2C(=O)[C@@H](NC(=O)/C(=N\OCC(=O)O)c3csc(N)n3)[C@H]2SC1 [Cefixime, cefixime]
[4]; AEAE1027 (CTX-M-14)
  MIC: 8 µg/mL
[4]; AEAE1029 (CTX-M-15)
  MIC: > 64 µg/mL
[5]; AECO001 (no ESBL)
  MIC: 1 µg/mL
[5]; AECO1078 (CTX-M-15)
  MIC: > 64 µg/mL
[5]; AECO1157 (CTX-M-15, TEM-OSBL)
  MIC: > 64 µg/mL
[5]; AECO1159 (CTX-M-15)
  MIC: > 64 µg/mL
[5]; AECO1169 (CTX-M-1, TEM-OSBL)
  MIC: 16 µg/mL
[5]; AECO1172 (CTX-M-14)
  MIC: 16 µg/mL
[7]; AKPN1159 (SHV-12)
  MIC: 32 µg/mL
[7]; AKPN1161 (SHV-7)
  MIC: 32 µg/mL
[7]; AKPN1162 (CTX-M-15, SHV-12)
  MIC: > 64 µg/mL
[7]; AKPN1166 (CTX-M-14, SHV-12)
  MIC: > 64 µg/mL
[7]; AKPN1167 (SHV-2)
  MIC: 8 µg/mL
CTX-M-15
  IC50: 20 µM
CTX-M-15 Strain
  MIC: > 64 µg/mL
  MIC CTX-M-15 Strain + CLV: 2 µg/mL
[9]; AKOX1005 (SHV-2, TEM-1, DHA-1)
  MIC: 16 µg/mL
[9]; AKOX1009 (CTX-M-15)
  MIC: > 64 µg/mL
AECO001
  MIC: 1 µg/mL
[2]; serum
  Protein binding (% bound): 65 (serum) % bound
[10]; ACFR1034 (CTX-M-15, TEM-OSBL)
  MIC: > 64 µg/mL
[10]; ACFR1035 (CTX-M-3, TEM-OSBL)
  MIC: > 64 µg/mL
[3]; for highest plasma concentration from previous row
  Mean unbound plasma concentration following one elimination half-life: 0.65 (400 mg) μg/mL
[3]; in vivo, 200 mg
  Mean Cmax: 2 µg/mL
  Mean fCmax: 0.7 µg/mL
[3]; in vivo, 400 mg
  Mean Cmax: 3.7 µg/mL
  Mean fCmax: 1.3 µg/mL
[3]; in vivo
  bioavailability: 40-90%
  fCmax: 2.7 µg/mL
[3]; plasma
  Elimination half-life: 3-4^b h
[11]; AECL1065 (CTX-M-15)
  MIC: > 64 µg/mL
[11]; AECL1067 (CTX-M-3)
  MIC: > 64 µg/mL

## CO/N=C(\C(=O)N[C@@H]1C(=O)N2C(C(=O)O)=C(COC(C)=O)CS[C@H]12)c1csc(N)n1 [Cefotaxime, cefotaxime]
CTX-M-15
  IC50: 31 µM
AECO001
  MIC: 0.125 µg/mL

## COCC1=C(C(=O)O)N2C(=O)[C@@H](NC(=O)/C(=N\OC)c3csc(N)n3)[C@H]2SC1 [Cefpodoxime, cefpodoxime]
[4]; AEAE1027 (CTX-M-14)
  MIC: > 64 µg/mL
[4]; AEAE1029 (CTX-M-15)
  MIC: > 64 µg/mL
[5]; AECO001 (no ESBL)
  MIC: 0.5 µg/mL
[5]; AECO1078 (CTX-M-15)
  MIC: > 64 µg/mL
[5]; AECO1147 (CTX-M-15)
  MIC: > 64 µg/mL
[5]; AECO1157 (CTX-M-15, TEM-OSBL)
  MIC: > 64 µg/mL
[5]; AECO1159 (CTX-M-15)
  MIC: > 64 µg/mL
[5]; AECO1169 (CTX-M-1, TEM-OSBL)
  MIC: > 64 µg/mL
[5]; AECO1172 (CTX-M-14)
  MIC: > 64 µg/mL
[7]; AKPN1159 (SHV-12)
  MIC: 64 µg/mL
[7]; AKPN1161 (SHV-7)
  MIC: 16 µg/mL
[7]; AKPN1162 (CTX-M-15, SHV-12)
  MIC: > 64 µg/mL
[7]; AKPN1166 (CTX-M-14, SHV-12)
  MIC: > 64 µg/mL
[7]; AKPN1167 (SHV-2)
  MIC: > 64 µg/mL
CTX-M-15
  IC50: 24 µM
CTX-M-15 Strain
  MIC: > 64 µg/mL
  MIC CTX-M-15 Strain + CLV: 4 µg/mL
[9]; AKOX1005 (SHV-2, TEM-1, DHA-1)
  MIC: 32 µg/mL
[9]; AKOX1009 (CTX-M-15)
  MIC: > 64 µg/mL
AECO001
  MIC: 0.5 µg/mL
[2]; plasma
  Protein binding (% bound): 21-29 (plasma) % bound
[2]; serum
  Protein binding (% bound): 22-33 (serum); % bound
[10]; ACFR1034 (CTX-M-15, TEM-OSBL)
  MIC: > 64 µg/mL
[10]; ACFR1035 (CTX-M-3, TEM-OSBL)
  MIC: > 64 µg/mL
[3]; in vivo, 100 mg
  Mean Cmax: 1.4 µg/mL
  Mean fCmax: 1.1 µg/mL
[3]; in vivo, 200 mg
  Mean Cmax: 2.3 µg/mL
  Mean fCmax: 1.8 µg/mL
[3]; in vivo, 400 mg
  Mean Cmax: 3.9 µg/mL
[3]; in vivo, 800 mg
  half-life: 2.9 h
  fCmax: approximately 5.4 μg/mL
[3]; in vivo
  bioavailability: 40-90%
  Elimination half-life: 2.1 to 2.8 h
  Mean unbound plasma concentration following one elimination half-life: 1.55 (400 mg) μg/mL
[11]; AECL1065 (CTX-M-15)
  MIC: > 64 µg/mL
[11]; AECL1067 (CTX-M-3)
  MIC: > 64 µg/mL

## CTX-M-15 (Escherichia coli)
[12]
  Km: 13 (10-16) μM
  kcat: 50 s⁻¹
  kcat/Km: 3.8e+06 M⁻¹ s⁻¹
[13]
  Km: 14 (11-18) μM
  kcat: 2 s⁻¹
  kcat/Km: 140000 M⁻¹ s⁻¹

Reference: US20180015100A1, “COMBINATION PRODUCTS FOR THE TREATMENT OF BACTERIAL INFECTIONS AND METHODS OF PRODUCING OR DOSING OF SAME” (priority 2016, published 2018)
